From patent US6586413B2, “Methods and compositions for reducing ischemic injury of the heart by administering adenosine receptor agonists and antagonists” (The United States of America as represented by the …, priority 1999, dated 2003)

Key:
[1] = system: Rat Brain A1 and A2-Receptors; conditions: cited from earlier work; for A1/A2 ratio: rat brain, reference 31; for A1/A2 ratio, value in square brackets: second value printed in brackets below, brackets not explained
[2] = system: ventricular myocytes cultured from chick embryos; test: Pharmacological preconditioning: 5 min exposure to agent, then 90 min simulated ischemia; assay type: cell-based; conditions: for effect of PLD inhibition on protective effect of MRS1760: ethanol (0.5%) or propranolol (100 μM) with 10 nM MRS1760
Procedure: FIG. 14 is a graph showing that the partial A1 receptor agonist, 8-butylaminoCPA, mimics the cardioprotective effect of ischemic preconditioning. Ventricular myocytes were cultured from chick embryos 14 days in ovo. The ability of the partial A1 agonist, 8-butylaminoCPA (8-butylamino-N^6-cyclopentyladenosine), to induce preconditioning was determined. In brief, myocytes were exposed to 8-butylaminoCPA at the indicated concentrations for 5 min, incubated for 10 min with agonist-free medium, and then exposed to simulated ischemia for 90 min. The extent of myocyte injury was quantitated at the end of the 90 min period by determinating the percentage of cells killed and the amount of creatine kinase (CK) released (units per milligram of cell protein). Data are means±SE of values from five independent experiments.
(§1) Determination of myocyte injury was made at the end of the ninety-minute hypoxia, at which time myocytes were taken out of the hypoxic incubator and re-exposed to room air (normal % O2). Aliquots of the media were then obtained for creatine kinase (CK) activity measurement, which is followed by quantitation of the number of viable cells. Measurement of basal level of cell injury was made after parallel incubation of control cells under normal % O2. The extent of hypoxia-induced injury to the ventricular cell was quantitatively determined by the percentages of cells killed and by the amount of CK released into the media according to a previously described method (16, 23). […] In brief, the media were replaced with a trypsin-EDTA buffer to detach the cells, which was then followed by sedimentation of the viable myocytes. Parallel changes in % cells killed and CK released (16, 23) further validated this assay for % cells killed. The amount of CK was measured as enzyme activity (unit/mg), and increases in CK activity above the control level were determined. The percentage of cells killed was calculated as the number of cells obtained from the control group (representing cells not subjected to any hypoxia or drug treatment) minus the number of cells from the treatment group divided by number of cells in control group multiplied by 100%.
Media were then replaced with fresh media, which was then followed by exposure to 90-minute simulated ischemia and the data graphed.

[3] = system: cardiac ventricular myocytes cultured from chick embryos; test: Hypoxia-induced myocyte injury, agent present during prolonged (90 min) hypoxia with glucose deprivation; assay type: cell-based; conditions: for cardioprotective effect when present during prolonged hypoxia (CK released, % myocytes killed): agonist present during prolonged hypoxia/simulated ischemia; for effect of antagonist on A1 agonist (CCPA, CHA, ADAC)-induced cardioprotection: antagonist with A1 agonist during prolonged hypoxia; for effect of antagonist on A3 agonist (IB-MECA, Cl-IB-MECA)-induced cardioprotection: antagonist with A3 agonist during prolonged hypoxia
Procedure: Ventricular cells were cultured from chick embryos 14 days in ovo as previously described (16, 23). Cells were cultivated in a humidified 5% CO2-95% air mixture at 37° C. […] The medium was changed to a HEPES-buffered medium containing (mM) 139 NaCl, 4.7 KCl, 0.5 MgCl2, 0.9 CaCl2, 5 HEPES (N-2-hydroxyethylpiperazine-N′-2-ethanesulfonic acid) and 2% fetal bovine serum, pH 7.4, 37° C. before exposing the myocytes to the various conditions at 37° C. Control myocytes were maintained in the HEPES-buffered media under room air. Ninety-minute exposure of the myocytes to hypoxia with glucose deprivation was used to induce cell injury. Hypoxia was produced by placing the cells in a hypoxic incubator (NuAire) where O2 was replaced by N2 as previously described (16,23). Effects of adenosine receptor agonists and antagonists on the extent of myocyte injury were determined by exposure of the prepared cells to these agents during the prolonged hypoxia.
as §1

[4] = system: isolated cardiac myocytes; test: Apoptotic cell death by DNA laddering on 1.5% agarose gel; assay type: cell-based; conditions: for apoptotic cell death caused by prolonged exposure to the agent: no ischemia, agents that increase intracellular calcium
Procedure: Such smearing is indicative of a culmination of the apoptotic cell death pathway. Isolated cardiac myocytes were exposed to 90-min ischemia and 30-min reoxygenation (lanes 4 and 5). […] Lanes 1 and 2 represent myocytes not exposed to ischemia or any agent. Data were representative of three experiments.
Isolated cardiac myocytes were exposed to prolonged moderate simulated ischemia (17 hours with 2-3% O2). Lane 3 represents myocytes not exposed to ischemia or any agent. Lane 5 represents myocytes exposed to 17 hours of ischemia. […] Data were representative of three experiments.
Lane 3 represents myocytes not exposed to any agent. Lane 5 represents cardiac myocytes exposed (for three hours) to an agent (a P2X receptor agonist, 2-methylthioATP) known to increase intracellular calcium concentration. Prolonged exposure to 2-methylthioATP or UTP caused increased apoptosis (Lane 7). […] Data were representative of two experiments.
The effects of agents which target the adenosine receptor on apoptosis were initially examined in isolated cardiac myocytes exposed to ischemia (for 90 minutes and 30 minutes of reoxygenation) or agents which increase intracellular calcium levels. Increasing the level of intracellular calcium concentration induces non-ischemia-related apoptosis in vitro. Apoptotic cell death of cardiac myocytes was assessed by determining the extent of smearing or “DNA laddering” on 1.5% agarose gels.

[5] = 8-SPT alone present during the hypoxia
[6] = in the presence of adenosine and 8-SPT (100 μM) during hypoxia

## COc1cc(C=Cc2nc3c(c(=O)n(C)c(=O)n3C)n2C)cc(OC)c1OC [44b]
[1]
  A1/A2 ratio: 70
  A1/A2 ratio, value in square brackets: [>5600]

## COc1ccc(C=Cc2nc3c(c(=O)n(C)c(=O)n3C)n2C)c(OC)c1OC [43b]
[1]
  A1/A2 ratio: 34

## CC(=O)Nc1cccc(C=Cc2nc3c(c(=O)n(C)c(=O)n3C)n2C)c1 [compound 23]
[1]
  A1/A2 ratio: 240

## COc1cc(C=Cc2nc3c(c(=O)n(C)c(=O)n3C)n2C)cc(OC)c1OCCCCN [compound 38]
[1]
  A1/A2 ratio: 36

## COc1cc(C=Cc2nc3c(c(=O)n(C)c(=O)n3C)n2C)cc(OC)c1OC(C)=O [compound 36]
[1]
  A1/A2 ratio: 93

## CCO [ethanol]
[2]
  effect of PLD inhibition on protective effect of MRS1760: abolished the protective effect of MRS1760

## Cn1c(=O)c2c(nc(C=Cc3cccc(N)c3)n2C)n(C)c1=O [22b]
[1]
  A1/A2 ratio: 30

## Cn1c(=O)c2c(nc(C=Cc3cccc(NC(=O)CCC(=O)O)c3)n2C)n(C)c1=O [compound 24]
[1]
  A1/A2 ratio: 250

## CCCn1c(=O)c2c(nc(C=Cc3cc(OC)cc(OC)c3)n2C)n(CCC)c1=O [53b]
[1]
  A1/A2 ratio: 110

## COc1cc(C=Cc2nc3c(c(=O)n(C)c(=O)n3C)n2C)cc(OC)c1OCCCCNC(=O)OC(C)(C)C [compound 39]
[1]
  A1/A2 ratio: 42

## COc1cc(C=Cc2nc3c(c(=O)n(C)c(=O)n3C)n2C)cc(OC)c1OCC=CCN [compound 40]
[1]
  A1/A2 ratio: 28

## CNC(=O)[C@H]1O[C@@H](n2cnc3c(NCc4cccc(I)c4)ncnc32)[C@H](O)[C@@H]1O [IB-MECA, N6-(3-iodobenzyl)adenosine-5′-N-methyluronamide]
[3]
  cardioprotective effect when present during prolonged hypoxia (CK released, % myocytes killed): capable of protecting the cardiac myocytes against hypoxia-induced injury

## Cn1c(=O)c2[nH]c(-c3ccc(S(=O)(=O)O)cc3)nc2n(C)c1=O [8-SPT, 8-sulfophenyl-theophylline]
[3]; [5]
  % cells killed: 31.6±1.5%
  CK released: 29.6±1.2 unit/mg

## CCOC(=O)C1=C(C)NC(c2ccccc2)=C(C(=O)OCC)C1/C=C/c1ccccc1 (stereo not drawn) [MRS 1097, 3,5-Diethyl 2-methyl-6-phenyl-4-[2-phenyl-(E)-vinyl]-1,4-(1)-dihydropyridine-3,5-dicarboxylate]
[3]
  effect of antagonist on A1 agonist (CCPA, CHA, ADAC)-induced cardioprotection: neither MRS 1191 nor MRS 1097 was able to block the CCPA-induced cardioprotection
  effect of antagonist on A3 agonist (IB-MECA, Cl-IB-MECA)-induced cardioprotection: able to block the cardioprotective effect of Cl-IB-MECA

## CCCn1c(=O)c2[nH]c(C3CCCC3)nc2n(CCC)c1=O [DPCPX, 8-cyclopentyl-1,3-dipropylxanthine]
[3]
  effect of antagonist on A1 agonist (CCPA, CHA, ADAC)-induced cardioprotection: blocked by the A1 antagonist DPCPX
  effect of antagonist on A3 agonist (IB-MECA, Cl-IB-MECA)-induced cardioprotection: had no effect on the ability of IB-MECA or Cl-IB-MECA to mediate their cardioprotective effects

## COc1cccc(C=Cc2nc3c(c(=O)n(C)c(=O)n3C)n2C)c1 [19b]
[1]
  A1/A2 ratio: 64

## Cn1c(=O)c2c(nc(C=Cc3cccc(Cl)c3)n2C)n(C)c1=O [CSC, 8-(3-chlorostyryl)caffeine]
[4]; prolonged moderate ischemia, 17 hours with 2-3% O2
  apoptosis (DNA laddering): reduced apoptosis induced by the prolonged moderate ischemia

## COc1cc(C=Cc2nc3c(c(=O)n(C)c(=O)n3C)n2C)cc(OC)c1O [compound 35]
[1]
  A1/A2 ratio: 19

## COc1ccc(C=Cc2nc3c(c(=O)n(C)c(=O)n3C)n2C)cc1 [29b]
[1]
  A1/A2 ratio: 44

## Cn1c(=O)c2c(nc(C=Cc3cccc(N(C(=O)OC(C)(C)C)C(=O)OC(C)(C)C)c3)n2C)n(C)c1=O [compound 26]
[1]
  A1/A2 ratio: 15

## Cn1c(=O)c2c(nc(C=Cc3cccc(F)c3)n2C)n(C)c1=O [27b]
[1]
  A1/A2 ratio: 190

## COc1cc(C=Cc2nc3c(c(=O)n(C)c(=O)n3C)n2C)cc(OC)c1OCC=CCNC(C)=O [compound 41]
[1]
  A1/A2 ratio: >50

## Cn1c(=O)c2c(nc(C=Cc3cccc([N+](=O)[O-])c3)n2C)n(C)c1=O [21b]
[1]
  A1/A2 ratio: 11

## OC[C@@]12C[C@@H]1[C@@H](n1cnc3c(NCc4cccc(I)c4)ncnc31)[C@H](O)[C@@H]2O [MRS1743]
[2]; agent alone, 5 min exposure before 90 min ischemia
  preconditioning / cardioprotective effect: exerting a potent preconditioning-like effect

## Cn1c(=O)c2c(nc(/C=C/c3cccc(C(F)(F)F)c3)n2C)n(C)c1=O [20b]
[1]
  A1/A2 ratio: 25

## OC[C@H]1O[C@@H](n2cnc3c(NC4CCCCC4)ncnc32)[C@H](O)[C@@H]1O [CHA, N^6-cyclohexyladenosine]
[3]
  cardioprotective effect when present during prolonged hypoxia (CK released, % myocytes killed): able to protect the myocytes when present during the prolonged hypoxia

## CSc1nc(N)c2ncn([C@@H]3O[C@H](COP(=O)(O)OP(=O)(O)OP(=O)(O)O)[C@@H](O)[C@H]3O)c2n1 [2-methylthioATP]
[4]
  apoptotic cell death caused by prolonged exposure to the agent: caused an increase in apoptotic cell death

## Cn1c(=O)c2c(nc(C=Cc3cc(F)cc(F)c3)n2C)n(C)c1=O [34b]
[1]
  A1/A2 ratio: 230

## Nc1ncnc2c1ncn2[C@@H]1O[C@H](CO)[C@@H](O)[C@H]1O [Adenosine]
[3]; adenosine 10 μM added during ninety-minute hypoxia, hypoxia alone 28.5±1.5
  CK released: 14.9±3 unit/mg
[3]; adenosine 10 μM added during ninety-minute hypoxia, hypoxia alone 30±2
  % cells killed: 12±2%
[3]; [6]
  % cells killed: 28±3%
  CK released: 31±5 unit/mg

## COc1ccccc1C=Cc1nc2c(c(=O)n(C)c(=O)n2C)n1C [17b]
[1]
  A1/A2 ratio: 18

## COc1cc(C=Cc2nc3c(c(=O)n(C)c(=O)n3C)n2C)cc(OC)c1OCC=CCNC(=O)OC(C)(C)C [compound 42]
[1]
  A1/A2 ratio: >40

## COc1ccc(C=Cc2nc3c(c(=O)n(C)c(=O)n3C)n2C)cc1OC [32b]
[1]
  A1/A2 ratio: 70

## O=c1ccn([C@@H]2O[C@H](COP(=O)(O)OP(=O)(O)OP(=O)(O)O)[C@@H](O)[C@H]2O)c(=O)[nH]1 [UTP]
[4]
  apoptotic cell death caused by prolonged exposure to the agent: caused an increase in apoptotic cell death

## CNC(=O)C1OC(n2cnc3c(NCc4cccc(S(=O)(=O)O)c4)ncnc32)C(O)C1O (stereo not drawn) [MRS 1340]
[3]; increasing concentrations, presence and absence of DPCPX (FIGS. 3A-3D)
  creatine kinase released during prolonged simulated ischemia: cardioprotective effects

## COc1cc(C=Cc2nc3c([nH]2)c(=O)n(C)c(=O)n3C)cc(OC)c1 [33a]
[1]
  A1/A2 ratio: 25

## C=CCn1c(=O)c2c(nc(C=Cc3cc(OC)c(OC)c(OC)c3)n2C)n(CC=C)c1=O [compound 46]
[1]
  A1/A2 ratio: 13
  A1/A2 ratio, value in square brackets: [>6700]

## Cn1c(=O)c2c(nc(C=Cc3cccc(NC(=O)OC(C)(C)C)c3)n2C)n(C)c1=O [compound 25]
[1]
  A1/A2 ratio: 30

## COc1cc(C=Cc2nc3c(c(=O)n(C)c(=O)n3C)n2C)cc(OC)c1 [33b]
[1]
  A1/A2 ratio: >200

## CC(C)NCC(O)COc1cccc2ccccc12 (stereo not drawn) [Propranolol]
[2]
  effect of PLD inhibition on protective effect of MRS1760: also abolished the protective effect of MRS1760

## COc1ccc2c(c1)CC[C@@H]1[C@@H]2CC[C@]2(C)[C@@H](NCCCCCCN3C(=O)C=CC3=O)CC[C@@H]12 [U-73122]
[2]; U-73122 (10 μM) with 1 μM 8-butylaminoCPA
  effect of PLC inhibitor on protective response to 8-butylaminoCPA: able to block the protective response to 8-butylaminoCPA
